Data reported in ChEMBL document CHEMBL1629601, “In vitro susceptibility of field isolates of Leishmania donovani to Miltefosine and amphotericin B: correlation with sodium antimony gluconate susceptibility and implications for treatment in areas of endemicity” (2009).
Values after ≈ are worked out from the molar mass of the structure shown.

Experiments:
Type in all cases: functional
Details in all cases: read-out: ED50 (the source's name)
Leishmania donovani [1] = test: Antimicrobial activity against Leishmania donovani K516 amastigote
Leishmania donovani [2] = test: Antimicrobial activity against Leishmania donovani K429 promastigote
Leishmania donovani [3] = test: Antimicrobial activity against Leishmania donovani K111 promastigote
Leishmania donovani [4] = test: Antimicrobial activity against Leishmania donovani K131 amastigote
Leishmania donovani [5] = test: Antimicrobial activity against Leishmania donovani K80 amastigote
Leishmania donovani [6] = test: Antimicrobial activity against Leishmania donovani K439 amastigote
Leishmania donovani [7] = test: Antimicrobial activity against Leishmania donovani K417 amastigote
Leishmania donovani [8] = test: Antimicrobial activity against Leishmania donovani K216 promastigote
Leishmania donovani [9] = test: Antimicrobial activity against Leishmania donovani K111 amastigote
Leishmania donovani [10] = test: Antimicrobial activity against Leishmania donovani K149 promastigote
Leishmania donovani [11] = test: Antimicrobial activity against Leishmania donovani K135 amastigote
Leishmania donovani [12] = test: Antimicrobial activity against Leishmania donovani K133 promastigote
Leishmania donovani [13] = test: Antimicrobial activity against Leishmania donovani K132 amastigote
Leishmania donovani [14] = test: Antimicrobial activity against Leishmania donovani K251 amastigote
Leishmania donovani [15] = test: Antimicrobial activity against Leishmania donovani K439 promastigote
Leishmania donovani [16] = test: Antimicrobial activity against Leishmania donovani K132 promastigote
Leishmania donovani [17] = test: Antimicrobial activity against Leishmania donovani K509 amastigote
Leishmania donovani [18] = test: Antimicrobial activity against Leishmania donovani K481 amastigote
Leishmania donovani [19] = test: Antimicrobial activity against Leishmania donovani K135 promastigote
Leishmania donovani [20] = test: Antimicrobial activity against Leishmania donovani K481 promastigote
Leishmania donovani [21] = test: Antimicrobial activity against Leishmania donovani K216 amastigote
Leishmania donovani [22] = test: Antimicrobial activity against Leishmania donovani K251 promastigote
Leishmania donovani [23] = test: Antimicrobial activity against Leishmania donovani K498 promastigote
Leishmania donovani [24] = test: Antimicrobial activity against Leishmania donovani K149 amastigote
Leishmania donovani [25] = test: Antimicrobial activity against Leishmania donovani K192 amastigote
Leishmania donovani [26] = test: Antimicrobial activity against Leishmania donovani K133 amastigote
Leishmania donovani [27] = test: Antimicrobial activity against Leishmania donovani K429 amastigote
Leishmania donovani [28] = test: Antimicrobial activity against Leishmania donovani LdAG83 promastigote
Leishmania donovani [29] = test: Antimicrobial activity against Leishmania donovani K516 promastigote
Leishmania donovani [30] = test: Antimicrobial activity against Leishmania donovani K59 amastigote
Leishmania donovani [31] = test: Antimicrobial activity against Leishmania donovani K192 promastigote
Leishmania donovani [32] = test: Antimicrobial activity against Leishmania donovani K435 promastigote
Leishmania donovani [33] = test: Antimicrobial activity against Leishmania donovani K435 amastigote
Leishmania donovani [34] = test: Antimicrobial activity against Leishmania donovani K80 promastigote
Leishmania donovani [35] = test: Antimicrobial activity against Leishmania donovani K417 promastigote
Leishmania donovani [36] = test: Antimicrobial activity against Leishmania donovani K59 promastigote
Leishmania donovani [37] = test: Antimicrobial activity against Leishmania donovani K498 amastigote
Leishmania donovani [38] = test: Antimicrobial activity against Leishmania donovani LdAG83 amastigote
Leishmania donovani [39] = test: Antimicrobial activity against Leishmania donovani K131 promastigote

EC50 (Leishmania donovani [1]): 0.62 µg/mL (≈ 0.671 µM)
EC50 (Leishmania donovani [2]): 1.34 µg/mL (≈ 1.45 µM)
EC50 (Leishmania donovani [3]): 1.02 µg/mL (≈ 1.1 µM)
EC50 (Leishmania donovani [4]): 0.35 µg/mL (≈ 0.379 µM)
EC50 (Leishmania donovani [5]): 0.18 µg/mL (≈ 0.195 µM)
EC50 (Leishmania donovani [6]): 0.77 µg/mL (≈ 0.833 µM)
EC50 (Leishmania donovani [7]): 0.44 µg/mL (≈ 0.476 µM)
EC50 (Leishmania donovani [8]): 0.52 µg/mL (≈ 0.563 µM)
EC50 (Leishmania donovani [9]): 0.2 µg/mL (≈ 0.216 µM)
EC50 (Leishmania donovani [10]): 1.46 µg/mL (≈ 1.58 µM)
EC50 (Leishmania donovani [11]): 0.25 µg/mL (≈ 0.271 µM)
EC50 (Leishmania donovani [12]): 0.65 µg/mL (≈ 0.703 µM)
EC50 (Leishmania donovani [13]): 0.22 µg/mL (≈ 0.238 µM)
EC50 (Leishmania donovani [14]): 0.55 µg/mL (≈ 0.595 µM)
EC50 (Leishmania donovani [15]): 1.62 µg/mL (≈ 1.75 µM)
EC50 (Leishmania donovani [16]): 1.22 µg/mL (≈ 1.32 µM)
EC50 (Leishmania donovani [17]): 0.65 µg/mL (≈ 0.703 µM)
EC50 (Leishmania donovani [18]): 0.55 µg/mL (≈ 0.595 µM)
EC50 (Leishmania donovani [19]): 0.31 µg/mL (≈ 0.335 µM)
EC50 (Leishmania donovani [20]): 0.69 µg/mL (≈ 0.747 µM)
EC50 (Leishmania donovani [21]): 0.25 µg/mL (≈ 0.271 µM)
EC50 (Leishmania donovani [22]): 1.42 µg/mL (≈ 1.54 µM)
EC50 (Leishmania donovani [23]): 1.16 µg/mL (≈ 1.26 µM)
EC50 (Leishmania donovani [24]): 0.28 µg/mL (≈ 0.303 µM)
EC50 (Leishmania donovani [25]): 0.67 µg/mL (≈ 0.725 µM)
EC50 (Leishmania donovani [26]): 0.21 µg/mL (≈ 0.227 µM)
EC50 (Leishmania donovani [27]): 0.37 µg/mL (≈ 0.4 µM)
EC50 (Leishmania donovani [28]): 0.023 µg/mL (≈ 0.0249 µM)
EC50 (Leishmania donovani [29]): 1.26 µg/mL (≈ 1.36 µM)
EC50 (Leishmania donovani [30]): 0.18 µg/mL (≈ 0.195 µM)
EC50 (Leishmania donovani [31]): 0.78 µg/mL (≈ 0.844 µM)
EC50 (Leishmania donovani [32]): 0.57 µg/mL (≈ 0.617 µM)
EC50 (Leishmania donovani [33]): 0.17 µg/mL (≈ 0.184 µM)
EC50 (Leishmania donovani [34]): 0.5 µg/mL (≈ 0.541 µM)
EC50 (Leishmania donovani [35]): 0.69 µg/mL (≈ 0.747 µM)
EC50 (Leishmania donovani [36]): 0.5 µg/mL (≈ 0.541 µM)
EC50 (Leishmania donovani [37]): 0.54 µg/mL (≈ 0.584 µM)
EC50 (Leishmania donovani [38]): 0.017 µg/mL (≈ 0.0184 µM)
EC50 (Leishmania donovani [39]): 0.43 µg/mL (≈ 0.465 µM)
Compound: C[C@@H]1[C@H](O)[C@@H](C)/C=C/C=C/C=C/C=C/C=C/C=C/C=C/[C@H](O[C@@H]2O[C@H](C)[C@@H](O)[C@H](N)[C@@H]2O)C[C@@H]2O[C@](O)(C[C@@H](O)C[C@@H](O)[C@H](O)CC[C@@H](O)C[C@@H](O)CC(=O)O[C@H]1C)C[C@H](O)[C@H]2C(=O)O [AMPHOTERICIN B]
